Results as given in USRE48097E1, “Cephem compounds, their production and use” (priority 2015, dated 2020).
In brackets after ≈: the same amount, converted by molar mass. Where two headings read alike, the source gives them in different places.

Experiments:
Assay type in all cases: cell-based
[1] = test system: S. pneumoniae ATCC 700673; assay: MIC against S. pneumoniae ATCC 700673; settings: Table 2, S. pneumoniae ATCC 700673, Pen R
Text: (§1) Without limitation, the present cephem compounds alone, or in combination with one or more β-lactamase inhibitors, may provide improved antibacterial efficacy, particularly in antibiotic-resistant bacterial strains. It is believed that the present compounds may be structurally different from known compounds and, as a result, may be more basic in nature. It is an advantage that the present compounds may extend the spectrum of effective bacterial compounds, particularly against previously-resistant bacteria (e.g. ESKAPE organisms), and/or gram negative bacteria, without significant side effects. In a preferred embodiment, the present cephem compound may comprise reference compound ceftazidime, which may be used alone, or in combination with one or more β-lactamase inhibitors, such as NXL-104. As shown, the foregoing composition was tested for minimum inhibitory concentration (MIC, μg/mL) against bacteria listed in Tables 2-3.

S. pneumoniae ATCC 6301 = assay: MIC against S. pneumoniae ATCC 6301; settings: Table 2, S. pneumoniae ATCC 6301, Pen S
Text: as §1

S. pneumoniae 2389 = assay: MIC against S. pneumoniae 2389; settings: Table 2, S. pneumoniae 2389, Pen R
Text: as §1

S. pneumoniae 2492 = assay: MIC against S. pneumoniae 2492; settings: Table 2, S. pneumoniae 2492, Pen R
Text: as §1

S. pneumoniae 2493 = assay: MIC against S. pneumoniae 2493; settings: Table 2, S. pneumoniae 2493, Pen R
Text: as §1

S. pneumoniae 2404 = assay: MIC against S. pneumoniae 2404; settings: Table 2, S. pneumoniae 2404, Pen S
Text: as §1

S. pneumoniae 2405 = assay: MIC against S. pneumoniae 2405; settings: Table 2, S. pneumoniae 2405, Pen S
Text: as §1

S. pneumoniae 2406 = assay: MIC against S. pneumoniae 2406; settings: Table 2, S. pneumoniae 2406, Pen S
Text: as §1

E. cloacae 551 = assay: MIC against E. cloacae 551; settings: Table 2, E. cloacae 551, Caz R, IMP S
Text: as §1

E. cloacae 552 = assay: MIC against E. cloacae 552; settings: Table 2, E. cloacae 552, Caz S, IMP S
Text: as §1

C. freundii 15 = assay: MIC against C. freundii 15; settings: Table 2, C. freundii 15, Caz R, IMP S
Text: as §1

C. freundii 579 = assay: MIC against C. freundii 579; settings: Table 2, C. freundii 579, Caz R, IMP S
Text: as §1

K. pneumoniae 4106 = assay: MIC against K. pneumoniae 4106; settings: K. pneumoniae 4106, KPC-3, TEM-1, SHV-12, SHV-141
Protocol: (§2) As shown, the foregoing composition was tested for minimum inhibitory concentration (MIC, μg/mL) against bacteria listed in Tables 2-3.

K. pneumoniae 4108 = assay: MIC against K. pneumoniae 4108; settings: K. pneumoniae 4108, KPC-3, TEM-166, SHV-12, SHV-141
Protocol: as §2

K. pneumoniae 4109 = assay: MIC against K. pneumoniae 4109; settings: Table 2, K. pneumoniae 4109, SHV-1, SHV-12
Text: as §1

K. pneumoniae 2689 = assay: MIC against K. pneumoniae 2689; settings: K. pneumoniae 2689, KPC-2
Protocol: as §2

K. pneumoniae 2697 = assay: MIC against K. pneumoniae 2697; settings: Table 2, K. pneumoniae 2697, IMP-4
Text: as §1

E. coli 102 = assay: MIC against E. coli 102; settings: Table 2, E. coli 102, TEM-1
Text: as §1

K. baumanii 4095 = assay: MIC against K. baumanii 4095; settings: Table 2, K. baumanii 4095, OXA-48
Text: as §1

E. coli 2668 = assay: MIC against E. coli 2668; settings: Table 2, E. coli 2668, OXA-48
Text: as §1

P. aeruginosa 2573 = assay: MIC against P. aeruginosa 2573; settings: Table 2, P. aeruginosa 2573, OXA-10 (Class D)
Text: as §1

E. coli 4103 = assay: MIC against E. coli 4103; settings: Table 3, E. coli 4103, KPC-2, TEM-1, CMY-type
Protocol: as §2

[2] = Streptococcus pneumoniae, alone, read-out: MIC
[3] = Enterobacter cloacae, alone, read-out: MIC
[4] = Citrobacter freundii, alone, read-out: MIC
[5] = Table 2, in combination with NXL-104
[6] = Table 3, in combination with NXL-104
[7] = Klebsiella pneumoniae, alone, read-out: MIC
[8] = Escherichia coli, alone, read-out: MIC

SMILES: CC(C)(O/N=C(\C(=O)N[C@@H]1C(=O)N2C(C(=O)[O-])=C(C[n+]3ccc4c(ccn4Cc4cc(C(=N)N)co4)c3)CS[C@H]12)c1csc(N)n1)C(=O)O [Example 6, (6R,7R)-7-{[(2Z)-2-(2-Amino-1,3-thiazol-4-yl)-2-{[(2-carboxypropan-2-yl)oxy]imino}acetyl]amino}-3-({1-[(4-carbamimidoylfuran-2-yl)methyl]-1H-pyrrolo[3,2-c]pyridin-5-ium-5-yl}methyl)-8-oxo-5-thia-1-azabicyclo[4.2.0]oct-2-ene-2-carboxylate]
- MIC ([1]; Streptococcus pneumoniae, ATCC700673, alone, read-out: MIC): 2 µg/mL
- MIC ([1]; in combination with NXL-104): 2.00 µg/mL
- MIC (S. pneumoniae ATCC 6301; Streptococcus pneumoniae, ATCC6301, alone, read-out: MIC): ≤ 0.06 µg/mL
- MIC (S. pneumoniae ATCC 6301; in combination with NXL-104): ≤0.06 µg/mL
- MIC (S. pneumoniae 2389; [2]): 2 µg/mL
- MIC (S. pneumoniae 2389; in combination with NXL-104): 2.00 µg/mL
- MIC (S. pneumoniae 2492; [2]): 2 µg/mL
- MIC (S. pneumoniae 2492; in combination with NXL-104): 2.00 µg/mL
- MIC (S. pneumoniae 2493; [2]): 2 µg/mL
- MIC (S. pneumoniae 2493; in combination with NXL-104): 2.00 µg/mL
- MIC (S. pneumoniae 2404; [2]): ≤ 0.06 µg/mL
- MIC (S. pneumoniae 2404; in combination with NXL-104): ≤0.06 µg/mL
- MIC (S. pneumoniae 2405; [2]): ≤ 0.06 µg/mL
- MIC (S. pneumoniae 2405; in combination with NXL-104): ≤0.06 µg/mL
- MIC (S. pneumoniae 2406; [2]): ≤ 0.06 µg/mL
- MIC (S. pneumoniae 2406; in combination with NXL-104): ≤0.06 µg/mL
- MIC (E. cloacae 551; [3]): 16 µg/mL
- MIC (E. cloacae 551; in combination with NXL-104): 1.00 µg/mL
- MIC (E. cloacae 552; [3]): 0.12 µg/mL
- MIC (E. cloacae 552; in combination with NXL-104): 0.25 µg/mL
- MIC (C. freundii 15; [4]): 8 µg/mL
- MIC (C. freundii 15; in combination with NXL-104): 0.50 µg/mL
- MIC (C. freundii 579; [4]): 2 µg/mL
- MIC (C. freundii 579; in combination with NXL-104): 0.25 µg/mL
- MIC (K. pneumoniae 4106; Klebsiella pneumoniae, 4106, Table 2, alone, read-out: MIC): 16 µg/mL (≈ 22.6 µM)
- MIC (K. pneumoniae 4106; Klebsiella pneumoniae, 4106, Table 3, alone, read-out: MIC): 32 µg/mL (≈ 45.2 µM)
- MIC (K. pneumoniae 4106; [5]): 1.00 µg/mL
- MIC (K. pneumoniae 4106; [6]): 2 µg/mL
- MIC (K. pneumoniae 4108; Klebsiella pneumoniae, 4108, Table 2, alone, read-out: MIC): 16 µg/mL (≈ 22.6 µM)
- MIC (K. pneumoniae 4108; Klebsiella pneumoniae, 4108, Table 3, alone, read-out: MIC): 32 µg/mL (≈ 45.2 µM)
- MIC (K. pneumoniae 4108; [5]): 0.50 µg/mL
- MIC (K. pneumoniae 4108; [6]): 1 µg/mL
- MIC (K. pneumoniae 4109; [7]): 8 µg/mL
- MIC (K. pneumoniae 4109; in combination with NXL-104): 0.12 µg/mL
- MIC (K. pneumoniae 2689; Klebsiella pneumoniae, 2689, Table 2, alone, read-out: MIC): 16 µg/mL (≈ 22.6 µM)
- MIC (K. pneumoniae 2689; Klebsiella pneumoniae, 2689, Table 3, alone, read-out: MIC): 16 µg/mL (≈ 22.6 µM)
- MIC (K. pneumoniae 2689; [5]): 1.00 µg/mL
- MIC (K. pneumoniae 2689; [6]): 1 µg/mL
- MIC (K. pneumoniae 2697; [7]): 16 µg/mL
- MIC (K. pneumoniae 2697; in combination with NXL-104): 0.50 µg/mL
- MIC (E. coli 102; [8]): ≤ 0.06 µg/mL
- MIC (E. coli 102; in combination with NXL-104): ≤0.06 µg/mL
- MIC (K. baumanii 4095; alone, read-out: MIC): 0.12 µg/mL
- MIC (K. baumanii 4095; in combination with NXL-104): 0.25 µg/mL
- MIC (E. coli 2668; [8]): 0.5 µg/mL
- MIC (E. coli 2668; in combination with NXL-104): 0.12 µg/mL
- MIC (P. aeruginosa 2573; Pseudomonas aeruginosa, alone, read-out: MIC): 2 µg/mL
- MIC (P. aeruginosa 2573; in combination with NXL-104): 2.00 µg/mL
- MIC (E. coli 4103; [8]): > 32 µg/mL
- MIC (E. coli 4103; in combination with NXL-104): 4 µg/mL
